Results: PubChem BioAssay (NCI)
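Interpolation was linear, between the two tested concentrations surrounding the appropriate level; five concentrations were tested over 48 hours in 96-well plates. The concentration for full growth arrest is given as TGI.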

How the values were obtained:
Test in all cases: DTP human tumour cell line panel, 48 h
CCRF-CEM leukemia = test system: CCRF-CEM leukemia
SK-MEL-28 melanoma = test system: SK-MEL-28 melanoma
RXF 393 renal = test system: RXF 393 renal
A498 renal = test system: A498 renal
HOP-92 NSCLC = test system: HOP-92 NSCLC
SW-620 colon = test system: SW-620 colon
OVCAR-4 ovarian = test system: OVCAR-4 ovarian
UO-31 renal = test system: UO-31 renal
KM12 colon = test system: KM12 colon
HCT-116 colon = test system: HCT-116 colon
SN12C renal = test system: SN12C renal
XF 498 CNS = test system: XF 498 CNS
LOX IMVI melanoma = test system: LOX IMVI melanoma
A549 NSCLC = test system: A549 NSCLC
CAKI-1 renal = test system: CAKI-1 renal
HCT-15 colon = test system: HCT-15 colon
OVCAR-5 ovarian = test system: OVCAR-5 ovarian
SK-MEL-2 melanoma = test system: SK-MEL-2 melanoma
HL-60(TB) leukemia = test system: HL-60(TB) leukemia
MALME-3M melanoma = test system: MALME-3M melanoma
SF-295 CNS = test system: SF-295 CNS
TK-10 renal = test system: TK-10 renal
LXFL 529 NSCLC = test system: LXFL 529 NSCLC
NCI-H226 lung = test system: NCI-H226 lung
SNB-78 CNS = test system: SNB-78 CNS
SR leukemia = test system: SR leukemia
M19-MEL melanoma = test system: M19-MEL melanoma
NCI-H460 lung = test system: NCI-H460 lung
U251 CNS = test system: U251 CNS
SF-539 CNS = test system: SF-539 CNS
OVCAR-8 ovarian = test system: OVCAR-8 ovarian
786-0 renal = test system: 786-0 renal
UACC-62 melanoma = test system: UACC-62 melanoma
NCI-H522 lung = test system: NCI-H522 lung
RPMI-8226 leukemia = test system: RPMI-8226 leukemia
ACHN renal = test system: ACHN renal
K-562 leukemia = test system: K-562 leukemia
SNB-19 CNS = test system: SNB-19 CNS
HCC-2998 colon = test system: HCC-2998 colon
UACC-257 melanoma = test system: UACC-257 melanoma
SK-OV-3 ovarian = test system: SK-OV-3 ovarian
DMS 273 small cell lung = test system: DMS 273 small cell lung
HT29 colon = test system: HT29 colon
MOLT-4 leukemia = test system: MOLT-4 leukemia
NCI-H23 lung = test system: NCI-H23 lung
EKVX NSCLC = test system: EKVX NSCLC
COLO 205 colon = test system: COLO 205 colon
PC-3 prostate = test system: PC-3 prostate
HOP-18 NSCLC = test system: HOP-18 NSCLC
KM20L2 colon = test system: KM20L2 colon
MCF7 breast = test system: MCF7 breast
MDA-MB-435 = test system: MDA-MB-435
SNB-75 CNS = test system: SNB-75 CNS
OVCAR-3 ovarian = test system: OVCAR-3 ovarian
MDA-N = test system: MDA-N
T-47D breast = test system: T-47D breast
BT-549 breast = test system: BT-549 breast
MDA-MB-231 breast = test system: MDA-MB-231 breast
SK-MEL-5 melanoma = test system: SK-MEL-5 melanoma
DU-145 prostate = test system: DU-145 prostate
NCI/ADR-RES ovarian = test system: NCI/ADR-RES ovarian
RXF-631 renal = test system: RXF-631 renal
M14 melanoma = test system: M14 melanoma
SF-268 CNS = test system: SF-268 CNS
HOP-62 NSCLC = test system: HOP-62 NSCLC
DLD-1 colon = test system: DLD-1 colon
IGROV1 ovarian = test system: IGROV1 ovarian
HS 578T breast = test system: HS 578T breast
DMS 114 small cell lung = test system: DMS 114 small cell lung

In the case of `N#Cc1sc2nc3c(c(-c4ccccc4)c2c1N)CCCC3`, the TGI (CCRF-CEM leukemia) is reported as greater than 100 µM, the TGI (SK-MEL-28 melanoma) is reported as greater than 100 µM and the TGI (RXF 393 renal) is reported as greater than 100 µM. For the same molecule, the TGI (A498 renal) was greater than 100 µM, the TGI (HOP-92 NSCLC) was greater than 100 µM and the TGI (SW-620 colon) was greater than 100 µM. For the same molecule, the TGI (OVCAR-4 ovarian) was greater than 100 µM, the TGI (UO-31 renal) was greater than 100 µM and the TGI (KM12 colon) was greater than 100 µM. For the same molecule, the TGI (HCT-116 colon) was greater than 100 µM, the TGI (SN12C renal) was greater than 100 µM and the TGI (XF 498 CNS) was 92.2 µM. The TGI (LOX IMVI melanoma) was greater than 100 µM, the TGI (A549 NSCLC) was greater than 100 µM and the TGI (CAKI-1 renal) was greater than 100 µM. It also gave a TGI (HCT-15 colon) greater than 100 µM, a TGI (OVCAR-5 ovarian) greater than 100 µM and a TGI (SK-MEL-2 melanoma) greater than 100 µM. The TGI (HL-60(TB) leukemia) was greater than 100 µM, the TGI (MALME-3M melanoma) was greater than 100 µM and the TGI (SF-295 CNS) was 43.6 µM. The TGI (TK-10 renal) was greater than 100 µM, the TGI (LXFL 529 NSCLC) was greater than 100 µM and the TGI (NCI-H226 lung) was greater than 100 µM. The TGI (SNB-78 CNS) was greater than 100 µM, the TGI (SR leukemia) was greater than 100 µM and the TGI (M19-MEL melanoma) was greater than 100 µM. The TGI (NCI-H460 lung) was greater than 100 µM, the TGI (U251 CNS) was greater than 100 µM and the TGI (SF-539 CNS) was 56.2 µM. It also gave a TGI (OVCAR-8 ovarian) greater than 100 µM, a TGI (786-0 renal) greater than 100 µM and a TGI (UACC-62 melanoma) greater than 100 µM. The TGI (NCI-H522 lung) was greater than 100 µM, the TGI (RPMI-8226 leukemia) was greater than 100 µM and the TGI (ACHN renal) was greater than 100 µM. For the same molecule, the TGI (K-562 leukemia) was greater than 100 µM, the TGI (SNB-19 CNS) was greater than 100 µM and the TGI (HCC-2998 colon) was greater than 100 µM. It also gave a TGI (UACC-257 melanoma) greater than 100 µM, a TGI (SK-OV-3 ovarian) greater than 100 µM and a TGI (DMS 273 small cell lung) greater than 100 µM. For the same molecule, the TGI (HT29 colon) was greater than 100 µM, the TGI (MOLT-4 leukemia) was greater than 100 µM and the TGI (NCI-H23 lung) was greater than 100 µM.
For `O=C1c2ccccc2C(=O)c2c1ccc1c3ccccc3n(-c3ccccc3)c21`, the TGI (EKVX NSCLC) was 56 µM, the TGI (CCRF-CEM leukemia) was 14.5 µM and the TGI (SK-MEL-28 melanoma) was 34.2 µM. For the same molecule, the TGI (RXF 393 renal) was 34.2 µM, the TGI (A498 renal) was 71.9 µM and the TGI (HOP-92 NSCLC) was 11.7 µM. The TGI (SW-620 colon) was 48 µM, the TGI (COLO 205 colon) was 34.2 µM and the TGI (OVCAR-4 ovarian) was 33.5 µM. The TGI (UO-31 renal) was 55.1 µM, the TGI (KM12 colon) was 50.1 µM and the TGI (PC-3 prostate) was greater than 100 µM. It also gave a TGI (HOP-18 NSCLC) of 27.6 µM, a TGI (HCT-116 colon) of 47.5 µM and a TGI (SN12C renal) of 32.3 µM. The TGI (KM20L2 colon) was 53.5 µM, the TGI (MCF7 breast) was greater than 55.6 µM and the TGI (MDA-MB-435) was 26 µM. The TGI (LOX IMVI melanoma) was 30.4 µM, the TGI (A549 NSCLC) was 58.1 µM and the TGI (CAKI-1 renal) was 35.1 µM. It also gave a TGI (HCT-15 colon) of 32.6 µM, a TGI (OVCAR-5 ovarian) of 47 µM and a TGI (SNB-75 CNS) of 44.9 µM. It also gave a TGI (SK-MEL-2 melanoma) of 46.8 µM, a TGI (HL-60(TB) leukemia) of 8.47 µM and a TGI (MALME-3M melanoma) of 44.6 µM. The TGI (SF-295 CNS) was 37.2 µM, the TGI (TK-10 renal) was 60.1 µM and the TGI (LXFL 529 NSCLC) was 30.7 µM. For the same molecule, the TGI (NCI-H226 lung) was 44.1 µM, the TGI (OVCAR-3 ovarian) was 55 µM and the TGI (SNB-78 CNS) was 49.3 µM. It also gave a TGI (SR leukemia) of 41.9 µM, a TGI (MDA-N) greater than 51.4 µM and a TGI (M19-MEL melanoma) of 38.6 µM. For the same molecule, the TGI (T-47D breast) was 45.5 µM, the TGI (NCI-H460 lung) was 63.8 µM and the TGI (U251 CNS) was greater than 100 µM. It also gave a TGI (BT-549 breast) of 51.3 µM, a TGI (MDA-MB-231 breast) of 77.7 µM and a TGI (SK-MEL-5 melanoma) of 29.9 µM. For the same molecule, the TGI (DU-145 prostate) was 33.4 µM, the TGI (SF-539 CNS) was 43.6 µM and the TGI (OVCAR-8 ovarian) was 44.8 µM. The TGI (NCI/ADR-RES ovarian) was greater than 100 µM, the TGI (786-0 renal) was 52.4 µM and the TGI (UACC-62 melanoma) was 24.1 µM. It also gave a TGI (RXF-631 renal) of 20.7 µM, a TGI (M14 melanoma) of 29.8 µM and a TGI (NCI-H522 lung) of 32.4 µM. It also gave a TGI (SF-268 CNS) of 54 µM, a TGI (RPMI-8226 leukemia) of 25.8 µM and a TGI (ACHN renal) of 41.2 µM. For the same molecule, the TGI (K-562 leukemia) was 29.8 µM, the TGI (SNB-19 CNS) was greater than 100 µM and the TGI (HCC-2998 colon) was 72.6 µM. The TGI (UACC-257 melanoma) was 41.7 µM, the TGI (SK-OV-3 ovarian) was greater than 100 µM and the TGI (DMS 273 small cell lung) was 34.4 µM. For the same molecule, the TGI (HOP-62 NSCLC) was greater than 100 µM, the TGI (HT29 colon) was 29.2 µM and the TGI (MOLT-4 leukemia) was 11.1 µM. The TGI (DLD-1 colon) was 41.6 µM, the TGI (NCI-H23 lung) was 34 µM and the TGI (IGROV1 ovarian) was 41 µM. For the same molecule, the TGI (HS 578T breast) was 42.7 µM.
For `C(=C\c1ccc2ccccc2c1Nc1ccccc1)/c1ccccc1`, the TGI (EKVX NSCLC) was greater than 100 µM, the TGI (CCRF-CEM leukemia) was 30.5 µM and the TGI (SK-MEL-28 melanoma) was greater than 88.2 µM. The TGI (RXF 393 renal) was 37.6 µM, the TGI (A498 renal) was 47.6 µM and the TGI (HOP-92 NSCLC) was 45.5 µM. For the same molecule, the TGI (SW-620 colon) was greater than 100 µM, the TGI (COLO 205 colon) was greater than 100 µM and the TGI (OVCAR-4 ovarian) was 23.2 µM. It also gave a TGI (UO-31 renal) greater than 72.2 µM, a TGI (KM12 colon) greater than 100 µM and a TGI (HOP-18 NSCLC) greater than 88.1 µM. The TGI (HCT-116 colon) was 46.4 µM, the TGI (SN12C renal) was greater than 100 µM and the TGI (KM20L2 colon) was greater than 100 µM. For the same molecule, the TGI (XF 498 CNS) was 40.6 µM, the TGI (LOX IMVI melanoma) was greater than 100 µM and the TGI (A549 NSCLC) was greater than 100 µM. The TGI (CAKI-1 renal) was greater than 83.8 µM, the TGI (DMS 114 small cell lung) was greater than 100 µM and the TGI (HCT-15 colon) was greater than 100 µM. The TGI (OVCAR-5 ovarian) was greater than 100 µM, the TGI (SNB-75 CNS) was 39.9 µM and the TGI (SK-MEL-2 melanoma) was greater than 100 µM. For the same molecule, the TGI (HL-60(TB) leukemia) was greater than 100 µM, the TGI (MALME-3M melanoma) was greater than 78.8 µM and the TGI (SF-295 CNS) was greater than 100 µM. The TGI (TK-10 renal) was greater than 100 µM, the TGI (LXFL 529 NSCLC) was greater than 100 µM and the TGI (NCI-H226 lung) was greater than 100 µM. The TGI (OVCAR-3 ovarian) was 60.4 µM, the TGI (SNB-78 CNS) was greater than 91.8 µM and the TGI (SR leukemia) was 33.6 µM. The TGI (M19-MEL melanoma) was greater than 100 µM, the TGI (NCI-H460 lung) was greater than 59.2 µM and the TGI (U251 CNS) was greater than 64.1 µM. It also gave a TGI (SK-MEL-5 melanoma) greater than 100 µM, a TGI (SF-539 CNS) greater than 100 µM and a TGI (OVCAR-8 ovarian) of 81.1 µM. It also gave a TGI (786-0 renal) of 33.9 µM, a TGI (UACC-62 melanoma) greater than 100 µM and a TGI (M14 melanoma) of 49.6 µM. The TGI (NCI-H522 lung) was greater than 100 µM, the TGI (SF-268 CNS) was greater than 100 µM and the TGI (RPMI-8226 leukemia) was greater than 72.5 µM. It also gave a TGI (ACHN renal) greater than 63.9 µM, a TGI (K-562 leukemia) of 26.1 µM and a TGI (SNB-19 CNS) greater than 90.5 µM. For the same molecule, the TGI (HCC-2998 colon) was greater than 100 µM, the TGI (UACC-257 melanoma) was greater than 100 µM and the TGI (SK-OV-3 ovarian) was greater than 83 µM. It also gave a TGI (DMS 273 small cell lung) greater than 100 µM, a TGI (HOP-62 NSCLC) of 62.5 µM and a TGI (HT29 colon) greater than 100 µM. It also gave a TGI (MOLT-4 leukemia) of 36.9 µM, a TGI (DLD-1 colon) greater than 100 µM and a TGI (NCI-H23 lung) greater than 87.6 µM. It also gave a TGI (IGROV1 ovarian) greater than 100 µM.
